Biological target: T1, human S1P1 receptor (EDG1) (Homo sapiens, UniProt P21453)
T1 construct: TEV protease site + Gal4-VP16 transcription factor (only in the Tango assay cells; not described for the GTPγS membranes); expressed in transfected cells; host or cells: rat hepatoma cells (membranes, GTPγS assay) or Tango EDG1-bla U2OS cells (Tango assay)
Assay: S1P1 GTPγS assay or S1P1 Tango assay (at least one of the above assays)
Type: cell-based
Conditions: read-out: pEC50 in at least one of the above assays (converted)
Procedure: For membrane preparations all steps were performed at 4° C. Rat hepatoma cells stably expressing the human S1P1 receptor or Rat Basophilic Leukaemia cells (RBL) stably expressing human S1P3 receptor were grown to 80% confluency before being harvested into 10 ml Phospho-Buffered Saline (PBS) and centrifuged at 1200 rpm for 5 minutes. After removal of the supernatant, the pellet was re-suspended and cells were homogenised within a glass Waring blender for 2 bursts of 15 secs in 200 mls of buffer (50 mM HEPES, 1 mM leupeptin, 25 μg/ml bacitracin, 1 mM EDTA, 1 mM PMSF, 2 μM pepstatin A). The blender was plunged into ice for 5 mins after the first burst and 10-40 mins after the final burst to allow foam to dissipate. The material was then spun at 500 g for 20 mins and the supernatant spun for 36 mins at 48,000 g. The pellet was resuspended in the same buffer as above but without PMSF and pepstatin A. The material was then forced through a 0.6 mm needle, made up to the required volume, (usually ×4 the volume of the original cell pellet), aliquoted and stored frozen at −80° C. S1P1 GTPγS assay Human S1P1 rat hepatoma membranes (1.5 μg/well) were adhered to a wheatgerm agglutinin (WGA)-coated scintillation proximity assay (SPA) beads (0.125 mg/well) in assay buffer (HEPES 20 mM, MgCl2 10 mM, NaCl 100 mM and pH adjusted to 7.4 using KOH 5M, GDP 10 μM FAC (final assay concentration) and saponin 90 μg/ml FAC was also added).
(§1) After 30 minutes pre-coupling on ice the bead and membrane suspension was dispensed into a white Greiner polypropylene LV384-well plate (5 μl/well), containing 0.1 μl of the compound. 5 μl/well [^35S]-GTPγS (0.5 nM final radioligand conc) made up in assay buffer was then added to agonist plates. The final assay cocktail (10.1 μl) was then centrifuged at 1000 rpm for 5 minutes then read immediately on a Viewlux reader.
(§2) All test compounds were dissolved in DMSO at a concentration of 10 mM and were prepared in 100% DMSO using a 1 in 4 dilution step to provide 11 point dose response curves. The dilutions were transferred to the assay plates ensuring that the DMSO concentration was constant across the plate for all assays.
All data was normalized to the mean of 16 high and 16 low control wells on each plate. A four parameter curve fit was then applied.
Recombinant EDG1-bla/U2OS cells (contain the human Endothelial Differentiation Gene 1 (EDG1) linked to a TEV protease site and a Gal4-VP16 transcription factor stably integrated into the Tango GPCR-bla U2OS parental cell line) were suspended in assay medium (Invitrogen Freestyle Expression Medium) at a density of 312, 500 cells/ml. Add 100 μl/well of the assay medium to the cell-free control wells (column 12) and 100 μl/well of the cell suspension to the test compound wells (row 2-8, column 1-10), the unstimulated control wells (DMSO) (column 11), and stimulated control wells (S1P) (row 1, column 1-10) in a Corning black-well, clear bottom 96-well plate. Cells were incubated at 37° C., 5% CO2 for 44-48 h. Add 25 μl of 5× stock solution of test compounds in assay medium with 0.5% DMSO to the test compound wells, 25 μl of 5× stock solution of agonist (S1P) in assay medium with 0.5% DMSO to the stimulated compound wells, and 25 μl of 5× stock solution of 0.5% DMSO in assay medium to the unstimulated control and cell-free control wells.
(§3) After incubation at 37° C., 5% CO2 for 5 h, 25 μl of 6× substrate mixture (6 μl Solution A (1 mg LiveBLAzer™-FRET B/G substrate (CCF4-AM) in 912 μl DMSO) plus 60 μl Solution B plus 934 μl Solution C) was added to each well and incubate at room temperature for 2 h in dark. The plate was finally read on EnVision for two emission channels (460 nm and 530 nm).
All test compounds were dissolved in DMSO at a concentration of 10 mM and were prepared in 100% DMSO using a 1 in 5 dilution step to provide 10 point dose response curves. […]

T1 sequence (P21453 whole entry, the tested form may be a part): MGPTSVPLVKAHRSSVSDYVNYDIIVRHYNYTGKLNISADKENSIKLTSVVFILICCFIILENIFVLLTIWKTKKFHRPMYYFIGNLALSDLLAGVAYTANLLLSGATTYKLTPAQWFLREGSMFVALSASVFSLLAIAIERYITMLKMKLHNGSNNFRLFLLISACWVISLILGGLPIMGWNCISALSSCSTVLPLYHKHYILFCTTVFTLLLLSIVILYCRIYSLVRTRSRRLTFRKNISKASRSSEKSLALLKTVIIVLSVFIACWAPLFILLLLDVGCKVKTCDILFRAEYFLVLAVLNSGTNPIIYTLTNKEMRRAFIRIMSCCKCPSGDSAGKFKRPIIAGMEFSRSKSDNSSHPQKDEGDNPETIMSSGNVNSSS

EC50 [nM] | Structure (SMILES)
< 10 | CC(C)Oc1ccc(-c2nc(-c3cccc4c(CCOCC(=O)O)cn(C)c34)no2)cc1Cl [Example 79, ({2-[7-(5-{3-chloro-4-[(1-methylethyl)oxy]phenyl}-1,2,4-oxadiazol-3-yl)-1-methyl-1H-indol-3-yl]ethyl}oxy)acetic acid]
< 10 | CC(C)Oc1ccc(-c2nc(-c3cccc4c(CCCOCC(=O)O)cn(C)c34)no2)cc1Cl [Example 80, ({3-[7-(5-{3-chloro-4-[(1-methylethyl)oxy]phenyl}-1,2,4-oxadiazol-3-yl)-1-methyl-1H-indol-3-yl]propyl}oxy)acetic acid]
< 1 | CC(C)Oc1ccc(-c2nc(-c3c(F)ccc4c(CCC(=O)O)c[nH]c34)no2)cc1Cl [Example 103, 3-[7-(5-{3-Chloro-4-[(1-methylethyl)oxy]phenyl}-1,2,4-oxadiazol-3-yl)-6-fluoro-1H-indol-3-yl]propanoic acid]
< 10 | CC(C)Oc1ccc(-c2nc(-c3c(F)ccc4c(CCC(=O)O)cn(C)c34)no2)cc1Cl [Example 104, 3-[7-(5-{3-Chloro-4-[(1-methylethyl)oxy]phenyl}-1,2,4-oxadiazol-3-yl)-6-fluoro-1-methyl-1H-indol-3-yl]propanoic acid]
< 10 | CC(C)Oc1ccc(-c2nc(-c3c(F)ccc4c(CCC(=O)O)cn(C)c34)no2)cc1C#N [Example 106, 3-[7-(5-{3-Cyano-4-[(1-methylethyl)oxy]phenyl}-1,2,4-oxadiazol-3-yl)-6-fluoro-1-methyl-1H-indol-3-yl]propanoic acid]

The next lines start with the molecule.

Structure (SMILES) | EC50 [nM]
CC(C)Oc1ccc(-c2nc(-c3ccc4[nH]c(CCC(=O)O)cc4c3)no2)cc1C#N [Example 89, 3-[5-(5-{3-cyano-4-[(1-methylethyl)oxy]phenyl}-1,2,4-oxadiazol-3-yl)-1H-indol-2-yl]propanoic acid] | < 10
CC(C)Oc1ncc(-c2nc(-c3cc(F)cc4c(CCC(=O)O)c[nH]c34)no2)cc1Cl [Example 101, 3-[7-(5-{5-Chloro-6-[(1-methylethyl)oxy]-3-pyridinyl}-1,2,4-oxadiazol-3-yl)-5-fluoro-1H-indol-3-yl]propanoic acid] | < 10
CC(C)Oc1ncc(-c2nc(-c3cc(F)cc4c(CCC(=O)O)cn(C)c34)no2)cc1Cl [Example 102, 3-[7-(5-{5-Chloro-6-[(1-methylethyl)oxy]-3-pyridinyl}-1,2,4-oxadiazol-3-yl)-5-fluoro-1-methyl-1H-indol-3-yl]propanoic acid] | < 1
CC(C)Oc1ccc(-c2nc(-c3c(F)ccc4c(CCC(=O)O)c[nH]c34)no2)cc1C#N [Example 105, 3-[7-(5-{3-Cyano-4-[(1-methylethyl)oxy]phenyl}-1,2,4-oxadiazol-3-yl)-6-fluoro-1H-indol-3-yl]propanoic acid] | < 1
CC(C)Oc1ccc(-c2nc(-c3cc4[nH]cc(CCC(=O)O)c4cc3F)no2)cc1Cl [Example 109, 3-[6-(5-{3-Chloro-4-[(1-methylethyl)oxy]phenyl}-1,2,4-oxadiazol-3-yl)-5-fluoro-1H-indol-3-yl]propanoic acid] | < 1
CC(C)Oc1ccc(-c2nc(-c3cc4[nH]cc(CCC(=O)O)c4cc3F)no2)cc1C#N [Example 110, 3-[6-(5-{3-Cyano-4-[(1-methylethyl)oxy]phenyl}-1,2,4-oxadiazol-3-yl)-5-fluoro-1H-indol-3-yl]propanoic acid] | < 1
CC(C)Oc1ncc(-c2nc(-c3cc4[nH]cc(CCC(=O)O)c4cc3F)no2)cc1Cl [Example 111, 3-[6-(5-{5-Chloro-6-[(1-methylethyl)oxy]-3-pyridinyl}-1,2,4-oxadiazol-3-yl)-5-fluoro-1H-indol-3-yl]propanoic acid] | < 10

Biological target: T2, human S1P3 receptor (EDG3) (Homo sapiens, UniProt Q99500)
T2 construct: expressed in transfected cells; host or cells: rat basophilic leukaemia cells RBL-2H3 (membranes, GTPγS assay) or GeneBLAzer EDG3-Ga15-NFAT-bla HEK 293T cells
T2 sequence (Q99500 whole entry): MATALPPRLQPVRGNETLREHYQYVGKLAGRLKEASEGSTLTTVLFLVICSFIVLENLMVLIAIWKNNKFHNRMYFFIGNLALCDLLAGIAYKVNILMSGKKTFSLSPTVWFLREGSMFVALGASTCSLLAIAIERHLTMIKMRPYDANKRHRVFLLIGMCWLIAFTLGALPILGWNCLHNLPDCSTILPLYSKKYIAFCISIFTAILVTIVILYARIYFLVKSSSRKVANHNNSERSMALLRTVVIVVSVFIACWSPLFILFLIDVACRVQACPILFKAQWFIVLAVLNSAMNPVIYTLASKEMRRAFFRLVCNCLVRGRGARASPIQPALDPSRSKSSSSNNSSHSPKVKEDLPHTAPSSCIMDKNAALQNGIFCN
Assay: S1P3 GTPγS assay or S1P3 GeneBlazer assay (at least one of the above assays)
Type: cell-based
Conditions: given as EC50
Procedure: S1P3 membranes from rat basophilic leukaemia cells (RBL-2H3) (1.5 μg/well) were adhered to WGA-coated SPA beads (0.125 mg/well) in assay buffer (HEPES 20 mM, MgCl2 3 mM, NaCl 100 mM and pH adjusted to 7.4 using KOH 5M), GDP 10 μM FAC and saponin 90 μg/ml FAC was also added).
as §1, with “μl) was centrifuged at” for “μl) was then centrifuged at”
as §2, with “assays. […]” for “assays.”
as §3, with “B/G Substrate” for “B/G substrate”, “nm). […]” for “nm).”

EC50 [nM] | Structure (SMILES)
316 | CC(C)Oc1ccc(-c2nc(-c3cccc4c([C@H]5C[C@H]5C(=O)O)cn(C)c34)no2)cc1Cl (relative stereo) [Example 40, cis-2-[7-(5-{3-chloro-4-[(1-methylethyl)oxy]phenyl}-1,2,4-oxadiazol-3-yl)-1-methyl-1H-indol-3-yl]cyclopropanecarboxylic acid]

System: circulating lymphocytes
Assay: not given
Conditions: animals and man; cited from earlier work

Structure (SMILES) | effect on circulating lymphocytes
CCCCCCCCc1ccc(CCC(N)(CO)CO)cc1 [FTY720] | reduce circulating lymphocytes

System: not given
Assay: not given
Conditions: clinical studies, first 24 hours of treatment; cited from earlier work

Structure (SMILES) | bradycardia
CCCCCCCCc1ccc(CCC(N)(CO)CO)cc1 [FTY720] | results in bradycardia
